Data published in US8961986B2, “Peptide composition” (Apitope Technology (Bristol) Limited, priority 2000, dated 2015).
“Also recorded” adds a separate entry of the source.

Key:
[1] = tested on: MHC class I or II molecule; conditions: cited from earlier work
[2] = tested on: fixed Mgar (HLA-DR2+ve) APC presenting to T cell clones; assay: Antigen-presentation assay using an APIPS (fixed APC) with human T cell clones; type: cell-based; conditions: for presentation by fixed APC without further processing (apitope): fixed vs live APC, T cell clone proliferation; for apitope within MBP region 125-148: live or p-formaldehyde-fixed Mgar cells, T cell clone MS17:A3, 48 h
Description: Presentation of the peptides to T cell clones is measured by proliferation. APC are fixed in 0.5% paraformaldehyde and plated at 1×10^5 cells per well of a 96-well tissue culture plate. T cells clones are plated at 2×10^4 cells per well in the presence of varying concentrations of peptide. After incubation for 48 h at 37° C., proliferation is measured by [^3H] thymidine incorporation over 16-20 h. Results are compared with the ability of T cells to respond to the epitope presented by live APC.
In order to investigate whether various MBP peptides are apitopes, their capacity to be presented to T-cells by fixed APC is investigated. Live or […] Mgar (HLA-DR2+ve) cells are pre-pulsed with the peptide in serum, or serum alone for 3.5 hours. Excess peptide is then removed from cells and the appropriate T cell clone added. The T cell proliferative response is measured by ^3H-thymidine uptake.
(§1) For any given epitope, there may exist one or more apitopes, capable of being presented to APC without further processing. The presence of apitopes within two regions of MBP is investigated by incubating live or p-formaldehyde-fixed Mgar (HLA-DR2+ve) cells are incubated with overlapping peptides in serum from MBP regions 77-100 (FIG. 12) and 125-148 (FIG. 13) or in serum alone. T cells were added and after 72 h (FIG. 12) or after 48 h (FIG. 13) the T cell proliferative response was measured by ^3H-thymidine uptake. For MBP 77-100, the T cells are isolated from a DR2:MBP 82-100 transgenic mouse, whereas for MBP 130-144 the T cell clone MS17:A3 is used.

[3] = tested on: MBP-specific T cell clones; assay: T cell clone (TCC) proliferation assay, fine mapping of MBP epitopes; type: cell-based, human; conditions: TCC from MS patients and healthy individuals; proliferative response
Description: MBP-specific T cell lines (TCL) are generated from 8 MS patients and 2 healthy control donors. PBMC from each subject are separated as described above and plated out at 1×10^6 cells/ml in 6-well plates in the presence of MBP (50 μg/ml); a portion of PBMC from each subject is regularly frozen and stored for subsequent restimulations. Seven days later the cells are fed with fresh medium containing 2% IL-2 (Lymphocult-HT; Biotest LTD., Birmingham, UK), and on day 12 of culture all cells are restimulated with antigen, IL-2 and irradiated (2500 Rad) autologous PBMC as a source of antigen presenting cells (APC), at a cell ratio of 1T cell:5 APC. Cells are expanded in IL-2 every 3-4 days, and on day 14 are restimulated with antigen, IL-2 and PBMC, as described above. On the day of the first restimulation cells are examined for specific proliferation to MBP. Briefly, 2×10^4 T cells and 1×10^5 irradiated autologous PBMC are cultured in triplicate, in 96-well round-bottom plates, in the presence of MBP. Cells are cultured for 2 days and pulsed with (^3H)-Thymidine at 0.4 μCi/well during the last 18 hours of the culture. Cells are then harvested as described above, and a TCL is considered to be MBP-specific with a δcpm>1000 and a SI>3.
Following 3 restimulation/expansion cycles TCL are cloned using PHA (Sigma, Poole, Dorset, UK)) in the presence of autologous irradiated PBMC as APC. T cells are plated under limiting dilution conditions at 0.1 cell/well, 0.3 cell/well and 1 cell/well and cultured in Terasaki plates (Nunc International, Costar) with 1×10^4 irradiated PBMC, 5 μg/ml PHA, and 2% IL-2. After 10-12 days, growth-positive wells are expanded onto 96-well round-bottom plates, using 1×10^5 irradiated PBMC, 5 μg/ml PHA and IL-2. Three days later wells are fed with fresh medium containing IL-2, and on day 7 the clones are expanded onto 48-well plates using 5×10^5 irradiated PBMC, PHA and IL-2; at this point clones are tested in proliferation assays for specific responses to MBP. MBP-specific clones are expanded a week later onto 24-well plates, using 1×10^6 irradiated PBMC with PHA or Dynabeads (Dynal, UK) and IL-2. The clones are maintained in 24-well plates using a 7-10 day restimulation/expansion cycle, essentially as described above. The ability of T cell clones (TCC) to recognize the panel of MBP peptides is tested by proliferation assays, as described above.
TCC are generated from 8 MS patients and 2 healthy individuals, and used to clarify the fine specificity of the peptide regions identified in the kinetic response assay. The specificity of each TCC is tested by its proliferative response to the panel of 15-mer peptides. Clone SD:A7 recognised region 1-24, and within this region this TCC responded to a.a. 5-19. Region 30-54 is recognised by 4 clones (MS49:D3, MS49:C8, MS49:A8, MS49:B6) and the epitope within this region is 30-44. […] Five clones (MS43:A7, MS41:B6, MS41:A2, MS41:C6, N5:8) recognize a.a. 83-99 which is contained in region 75-99. One patient produced TCC specific for a.a. 110-124 (MS60:A2, MS60:B3), contained within the 105-129 pool, and another TCC from the same patient is specific to 130-144 (MS60:E1), found within the 120-144 region. Five individuals produce clones which recognize epitopes within the region 135-159: MS60:F7, MS60:D1, MS59:F1 and N5:19 recognizes a.a. 140-154; MS57:A1 is specific to 140-149, and TCC MS17:A3 responds to sequence 130-144. […] Lastly, region 150-170 is recognized by 2 clones specific to a.a. 156-169.

[4] = tested on: HLA-DQ6; assay: Antigen presentation assay, HLA-DQ6 transfected L-cells; type: cell-based, human
From the text: MBP peptides 30-44, 130-144 and 139-153 were synthesized using L-amino acids and standard F-moc chemistry on an Abimed AMS 422 multiple peptide synthesiser.
L-cells transfected with either HLA-DQ6, HLA-DR2a or HLA-DR2b, or Mgar cells (EACC, Porton Down, UK) which express HLA-DQ, DP and DR were used as APCs.
T-cell clones MS 49:D3 and MS17:A2 were generated from MS patients and clone N5:19 was generated from a normal individual. All three clones were DR2 positive.
Antigen presenting cells were incubated with the various concentrations of peptide and the appropriate T-cells. Proliferation, and therefore activation, of the T-cells was measured by [^3H]-Thymidine incorporation, and expressed as the stimulation index (SI=corrected counts per minute (ccpm) culture containing peptide/ccpm culture without peptide).

[5] = tested on: draining lymph node cells; assay: Tolerance experiments with 89-101 and 87-96: lymph node cell recall proliferation; type: in vivo, Mice
Description: In order to test this possibility tolerance experiments are performed with the 89-101 and 87-96 peptides (FIGS. 15a and b).
Mice received 200 μg of peptide in PBS or PBS alone intraperitoneally on days −8, −6 and −4 prior to 100 μg of peptide in complete Freunds adjuvant on day 0. After 10 days, draining lymph node cells (6×10^5 per well) were cultured in X-Vivo 15 medium supplemented with 5×10^−5M 2-mercaptoethanol and […] L-glutamine with or without antigen for 72 hours. Cultures were pulsed for the final 16 hours with 0.5 μCi ^3H.thymidine and incorporation measured using a liquid scintillation counter. Results are expressed as means counts per minute for triplicate cultures.

[6] = tested on: fixed Mgar (HLA-DR2+ve) APC presenting to T cells from DR2:MBP 82-100 transgenic mouse; assay: Antigen-presentation assay using an APIPS (fixed APC) with T cells from DR2:MBP82-100 transgenic mouse; type: cell-based; conditions: live or p-formaldehyde-fixed Mgar cells, 72 h
Description: Presentation of peptides to T cells isolated from DR2:MBP82-100 transgenic mouse was essentially as described above except APC were plated at 5×10^5 cells per well, T cells were plated at 1×10^5 cells per well, and incubation was allowed to proceed for 72 h prior to the addition of [^3H]-thymidine.
as §1

MBP 134-148: MBP peptide identified as apitope in WO 03/064464 (MASQKRPSQRHGSKY; UniProt P02686 134-148, looked up, fragment)
identified as apitope in WO 03/064464 [1]: apitopes

MBP 136-150: MBP peptide identified as apitope in WO 03/064464 (SQKRPSQRHGSKYLA; UniProt P02686 136-150, looked up, fragment)
identified as apitope in WO 03/064464 [1]: apitopes

RASDYKSAHKGFKGV [MBP 130-144]
presentation by fixed APC without further processing (apitope) [2]: shown to act as apitopes; also recorded: found to be apitopes; also recorded: can be presented by fixed APC without further processing
T cell clones (TCC) recognising the peptide [3]: responds

SDYKSAHKGFKGVDA [MBP 132-146]
apitope within MBP region 125-148 [2]: shown to act as apitopes

MBP 135-149: MBP peptide identified as apitope in WO 03/064464 (ASQKRPSQRHGSKYL; UniProt P02686 135-149, looked up, fragment)
identified as apitope in WO 03/064464 [1]: apitopes

MBP 156-169: MBP a.a. 156-169 recognised by 2 clones; possibly the same as 156-170 (DHARHGFLPRHRDT; UniProt P02686 156-169, looked up, fragment)
T cell clones (TCC) recognising the peptide [3]: 2

H-Ala-Ser-Asp-Tyr-Lys-Ser-Ala-His-Lys-Gly-Phe-Lys-Gly-Val-Asp-NH2 (H-ASDYKSAHKGFKGVD-NH2) [MBP 131-145]
HLA-DQ6 binding [4]: HLA-DQ6 binding
apitope within MBP region 125-148 [2]: shown to act as apitopes

MBP 110-124: myelin basic protein peptide, residues 110-124 (RPSESDELQTIQEDS)
presentation by fixed APC without further processing (apitope) [2]: shown to act as apitopes; also recorded: found to be apitopes; also recorded: can be presented by fixed APC without further processing
T cell clones (TCC) recognising the peptide [3]: TCC specific

MBP 87-96: MBP 10-mer peptide 87-96, contains the epitope 89-94 (SRPHLIRLFS; UniProt P02686 87-96, looked up, fragment)
effect of peptide as tolerogen on recall responses after priming with 87-96 ([5]; 200 μg i.p. days -8, -6, -4, priming 87-96 in CFA day 0, lymph node cells day 10): suppressed recall responses to both 87-96 and 89-101
in vitro recall response after priming with 87-96 ([5]; PBS pre-treated mice, lymph node cells): strong recall response

ENPVVHFFKNIVTPR [MBP 83-97]
apitope within MBP region 77-100 [6]: shown to act as apitopes

MBP 5-19: MBP 15-mer peptide a.a. 5-19 (AGKRELNAEKASTNS; UniProt P02686 5-19, looked up, fragment)
T cell clones (TCC) recognising the peptide [3]: responded

MBP 140-149: MBP 10-mer peptide 140-149 (PSQRHGSKYL; UniProt P02686 140-149, looked up, fragment)
T cell clones (TCC) recognising the peptide [3]: specific

MBP 156-170: myelin basic protein peptide, residues 156-170; epitope but not apitope (DHARHGFLPRHRDTG)
presentation by fixed APC without further processing (apitope) [2]: an epitope but not an apitope; also recorded: requires further processing for presentation to T cells

DYKSAHKGFKGVDAQ [MBP 133-147]
apitope within MBP region 125-148 [2]: shown to act as apitopes

DENPVVHFFKNIVTP [MBP 82-96]
apitope within MBP region 77-100 [6]: shown to act as apitopes

TQDENPVVHFFKNIV [MBP 80-94]
apitope within MBP region 77-100 [6]: shown to act as apitopes
presentation by fixed APC without further processing (apitope) [2]: found to be apitopes

QDENPVVHFFKNIVT [MBP 81-95]
apitope within MBP region 77-100 [6]: shown to act as apitopes

MBP 60-74: MBP 15-mer peptide 60-74 (QDTAVTDSKRTADPK; UniProt P02686 60-74, looked up, fragment)
T cell clones (TCC) recognising the peptide [3]: One

MBP 138-152: MBP peptide identified as apitope in WO 03/064464 (KRPSQRHGSKYLATA; UniProt P02686 138-152, looked up, fragment)
identified as apitope in WO 03/064464 [1]: apitopes

MPVVHFFKNIVTPRT [MBP 84-98]
apitope within MBP region 77-100 [6]: shown to act as apitopes

H-Pro-Arg-His-Arg-Asp-Thr-Gly-Ile-Leu-Asp-Ser-Ile-Gly-Arg-Phe-NH2 (H-PRHRDTGILDSIGRF-NH2) [MBP 30-44]
HLA-DQ6 binding [4]: HLA-DQ6 binding
proliferative response versus Mgar control cells ([4]; T-cell clone MS 49:D3, highest peptide concentration): 1.5 fold
presentation by fixed APC without further processing (apitope) [2]: shown to act as apitopes; also recorded: found to be apitopes; also recorded: can be presented by fixed APC without further processing
T cell clones (TCC) recognising the peptide [3]: 4

MBP 137-151: MBP peptide identified as apitope in WO 03/064464 (QKRPSQRHGSKYLAT; UniProt P02686 137-151, looked up, fragment)
identified as apitope in WO 03/064464 [1]: apitopes
